As usually defined, the IC50 is the concentration at which inhibition is half-maximal. As a reminder, the Kp is tissue or fluid exposure divided by exposure in the circulation.

Results on 2 compounds are retold here after patent publication US10829493B2, “Compositions and methods for treating KIT- and PDGFRA-mediated diseases” (Blueprint Medicines Corporation, priority 2019, dated 2020).

Several values for one entry are separate records, joined by “and”; a condition that tells them apart may be missing. Equal values may be shown once. Read-outs that look alike come from different tables or passages of the source.

Data set [1] can be described thus: Brain penetration in rats, brain to plasma ratios (Kp,brain, Kpuu,brain). As to conditions: for concentration at 24 h / Kp uu at 24 h: intravenous. The data set is classed as in vivo, Sprague-Dawley rats. From the text: To understand the brain penetration, brain to plasma ratios of the compounds were obtained in Sprague-Dawley (SD) rats. In vivo equilibrium distribution between blood and brain in preclinical species such as rats is a commonly used parameter to evaluate brain penetration. Kp,brain is the ratio of concentrations in brain and blood (Cbrain/Cplasma) The compound's passive diffusion characteristics, its affinity for membrane transporters at the blood-brain barrier (BBB), and the relative drug binding affinity differences between the plasma proteins and brain tissue influence the Kp,brain.
The animals received IV infusion of 1 mg/kg/hr of the compound over 24 hours via jugular vein cannulation. At 24 hours, blood was collected via tail vein bleeding or cardiac puncture (under anesthesia) and centrifuged to obtain plasma samples. Brain tissues were collected and homogenized with phosphate-buffered saline (PBS). The concentrations of the compounds were obtained in the plasma and brain homogenates by LC-MS/MS analysis.

Data set [2] in a line: Rat plasma protein binding, equilibrium dialysis. The data set is classed as in vitro ADME. As to conditions: 100% rat plasma, equilibrium dialysis 5 hours at 37° C.; for fraction unbound at 5 h, 10 μM: read-out: Fraction unbound fu,p, rat plasma. As to the method:
Rat plasma protein binding of 4 and 63 were evaluated in vitro using an equilibrium dialysis method. […] Samples from the donor and receiver sides were analyzed by LC-MS/MS. Plasma protein bound and unbound fractions were calculated using the following equations—d Fraction bound (fb)*(%)=100×([Donor]5h−[Receiver]5h)/[Donor]5h (Equation 1) Fraction unbound (fu),p*(%)=100−% Bound* (Equation 2) where: [Donor]5h is measured donor concentration at 5-hour; [Received]5h is measured receiver concentration at 5-hour; fb* is bound fraction determined from plasma; fu,p* is calculated unbound fraction for plasma. Warfarin and quinidine were used as positive controls.
(In equilibrium dialysis only unbound substance equilibrates across the membrane.)

The nature of data set [3]: Rat brain protein binding in brain homogenate, equilibrium dialysis. The format is in vitro ADME. As to conditions: equilibrium dialysis 5 hours at 37° C., read-out: fu,brain (brain homogenate). As to the method: Similarly, rat brain protein binding of 4 and 63 were also evaluated in vitro using equilibrium dialysis method. 1 μM of the compound was assessed in brain homogenate in a dialysis block for 5 hours at 37° C. Samples from the donor and receiver sides were analyzed by LC-MS/MS. Brain protein bound and unbound fractions were calculated using the equations mentions above (Equations 1 and 2). Due to extensive protein binding, 4 was diluted further 4× for the brain homogenate measurement. The fu,brain of 4 and 63 were 0.29% and 0.1% respectively.

A short description of data set [4]: Rat brain protein binding in rat brain slices. The format is in vitro ADME. The note with it: rat brain slices (300 um thick); 300 um thick rat brain slices (striatum area); read-out: fu,brain (rat brain slices). How it is done: Alternatively, rat brain protein binding of compounds 4 and 63 was evaluated in vitro by employing 300 um thick rat brain slices (striatum area) in an incubation tray. The fu,brain of compounds 4 and 63 by this method was 0.329% and 0.057% respectively. In that case, the Kp,uu, brain of 4 and 63 are 0.028 and 0.044 respectively.

Data set [5] has as its target CYP3A4 (Homo sapiens (Human), UniProt P08684). Put plainly: CYP inhibition in human liver microsomes, CYP3A4 (midazolam/testosterone). The format is in vitro ADME. As to the method:
In vitro studies in human liver microsomes were run according the standard method. […] The samples were then analyzed by LC-MS/MS for the quantification of the probe substrate left after the reaction and the IC50 values were determined by non-linear regression. The substrates for CYP2C9, CYP2D6, CYP3A4 were diclofenac, dextromethorphan and midazolam/testosterone respectively.
In general terms: Microsomes from liver hold many membrane-bound enzymes, among them those of drug oxidation.

Data set [6] can be described thus: Monkey brain to plasma ratio (Kp, Kpuu) after iv bolus and 2-hour iv infusion. The format is in vivo. How it is done:
A single IV bolus dose followed by a 2-hour iv infusion of the compound was administered to the monkey (3 monkeys/compound). Blood was collected from a femoral vein predose, right after the bolus administration and at the end of the infusion. The monkey was euthanized after the infusion and brain tissue was collected. Toxicokinetic evaluation of plasma (obtained by centrifugation of blood) and brain (homogenized in a buffer) was conducted to obtain brain to plasma ratio (Kp) of the compound. Kpuu was calculated by taking into consideration the fu,plasma and fu,brain as discussed above.

Data set [7] deals with UT-7 cells. Put plainly: UT-7 cell proliferation with SCF stimulation as a measure of wild-type KIT activity (CellTiter-Glo). The note with it: Homo sapiens, UT7, 72 h, SCF-stimulated UT-7 cell proliferation. The data set is classed as cell-based, human. From the text: UT-7 Cell Proliferation with SCF Stimulation Assay as a Measure of Wild-Type KIT Activity
UT-7 cells are human megakaryoblastic leukemia cell lines that can be grown in culture with dependence on granulocyte macrophage colony stimulating factor (GM-CSF) or stem cell factor (SCF). UT-7 cells respond to SCF stimulation by activation of the KIT receptor tyrosine kinase and subsequent downstream signaling that can support cell growth and proliferation (Kuriu et al, 1999; Komatsu et al, 1991; Sasaki et al, 1995). Test compounds were assayed for their ability to inhibit SCF-stimulated proliferation of UT-7 cells.
Inhibition of SCF-stimulated UT-7 cell proliferation was assessed using the CellTiter-Glo assay that quantifies the amount of adenosine triphosphate (ATP) present, which is a readout of metabolically active cells and is directly proportional to the number of viable cells in culture. The ability of test compounds to inhibit SCF-stimulated UT-7 cell proliferation was determined using a 10-point dose curve ranging from 25 μM to 95.4 pM of test compound.
UT-7 cells were maintained in IMDM supplemented with 10% FBS, 5 ng/mL GM-CSF and 100 units/mL Penicillin-Streptomycin and grown in a 37° C. humidified tissue culture incubator. UT-7 cells were washed once with serum free, GM-CSF free IMDM. Cells were then resuspended in IMDM containing 4% FBS and 50 ng/mL SCF and seeded at 2500 cells per well in a volume of 22 μL in a 384-well microplate. A 10-point dose concentration series of test compounds (25.0 μM to 95.4 pM) were then added to the cells in a volume of 3.1 μL to each well (0.25% DMSO final concentration) and placed in a tissue culture incubator (5% CO2, 37° C.) for 72 hours. After 3-days with test compound, CellTiter-Glo reagent was prepared fresh and 25 μL of reagent was added to each well. The plate was mixed by shaking for 10 minutes at RT at 300 rpm on a plate shaker. The plate was read on an EnVision plate reader using the Ultra Sensitive Luminescence protocol for a 384-well plate.
On the technique in general: In ATP-based viability assays light output follows the ATP content of the culture.

Where [8] appears, read: Sprague-Dawley, rat, brain, 1 mg/kg/hr, individual rats (Rat 1-3), IV infusion 1 mg/kg/hr over 24 hours, at 24 hours, read-out: Brain Concentration.
[9] abbreviates: Sprague-Dawley, rat, brain, 1 mg/kg/hr, mean of 3 rats, IV infusion 1 mg/kg/hr over 24 hours, at 24 hours, read-out: Brain Concentration (ng/mL), Mean.
The mark [10] stands for this setting: Sprague-Dawley, rat, brain, 1 mg/kg/hr, rat, from total mean brain concentration and fu,brain (homogenate), read-out: Unbound concentration, Brain.
Where [11] appears, read: Sprague-Dawley, rat, plasma, 1 mg/kg/hr, individual rats (Rat 1-3), IV infusion 1 mg/kg/hr over 24 hours, at 24 hours, read-out: Plasma Concentration.
[12] abbreviates: Sprague-Dawley, rat, plasma, 1 mg/kg/hr, mean of 3 rats, IV infusion 1 mg/kg/hr over 24 hours, at 24 hours, read-out: Plasma Concentration (ng/mL), Mean.
[13] abbreviates: Sprague-Dawley, rat, plasma, 1 mg/kg/hr, rat, from total mean plasma concentration and fu,p, read-out: Unbound concentration, Plasma.
The mark [14] stands for this setting: individual rats (Rat 1-3), IV infusion 1 mg/kg/hr over 24 hours, at 24 hours.
[15] abbreviates: mean of 3 rats, IV infusion 1 mg/kg/hr over 24 hours, at 24 hours.
The mark [16] stands for this setting: rat, unbound brain to plasma ratio, fu,brain from brain homogenate.

CYP3A4, sequence (P08684 whole entry): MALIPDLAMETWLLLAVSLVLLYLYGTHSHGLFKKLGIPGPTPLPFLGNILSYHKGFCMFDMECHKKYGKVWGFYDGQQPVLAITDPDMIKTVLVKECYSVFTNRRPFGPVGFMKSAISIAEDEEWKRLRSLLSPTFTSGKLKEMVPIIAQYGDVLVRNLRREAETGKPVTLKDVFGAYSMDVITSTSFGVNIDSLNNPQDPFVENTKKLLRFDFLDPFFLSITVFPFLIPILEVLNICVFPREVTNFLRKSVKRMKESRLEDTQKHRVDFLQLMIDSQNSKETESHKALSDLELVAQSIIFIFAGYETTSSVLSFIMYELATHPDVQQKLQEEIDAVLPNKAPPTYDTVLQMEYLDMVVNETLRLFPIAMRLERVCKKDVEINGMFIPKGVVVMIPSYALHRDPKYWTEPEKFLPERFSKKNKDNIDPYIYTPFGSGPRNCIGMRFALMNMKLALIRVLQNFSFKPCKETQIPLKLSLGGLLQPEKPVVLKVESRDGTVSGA

As for `C[C@](N)(c1ccc(F)cc1)c1cnc(N2CCN(c3ncnn4cc(-c5cnn(CCO)c5)cc34)CC2)nc1` [Compound 4, (S)-2-(4-(4-(4-(5-(1-amino-1-(4-fluorophenyl)ethyl)pyrimidin-2-yl)piperazin-1-yl)pyrrolo[2,1-f][1,2,4]triazin-6-yl)-1H-pyrazol-1-yl)ethanol], the concentration at 24 h in data set [1] (setting [8]) is 152 ng/mL; in data set [1] (setting [9]) it was 183 ng/mL; in data set [1] (setting [10]) it was 0.53 ng/mL; in data set [1] (setting [11]) it was 859 ng/mL; in data set [1] (setting [12]), 1050 ng/mL; in data set [1] (setting [13]) it was 21.9 ng/mL. The “Brain Concentration” value in data set [1] (setting [14]) is 188 ng/mL and 208 ng/mL. Besides, in data set [1] (setting [14]), the “Kp, brain” value was 0.177 and 0.168 and 0.174. In addition, in data set [1] (setting [14]), the “Plasma Concentration” value is 1120 ng/mL and 1180 ng/mL. The “Kp, brain, Mean” value in data set [1] (setting [15]) was 0.17 and 0.174. The “Kp,uu, brain (brain slice method)” value in data set [1] (rat, fu,brain from brain slices) was 0.028. Further, the “Kpuu,brain” value in data set [1] (setting [16]) is given as 0.024. In data set [2], the “Fraction bound (fb), rat plasma” value was 97.92%. Besides, the fraction unbound at 5 h, 10 μM in data set [2] amounted to 0.0208. Further, the fraction unbound at 5 h, 1 μM in data set [3] came to 0.0029. Moreover, the fraction unbound in data set [4] was 0.00329. In addition, the IC50 in data set [5] (as measured according to Example 5, substrate not stated (embodiment 14), read-out: IC50 for CYP3A4) was below 10 µM; in data set [5] (pooled human liver microsomes, substrate midazolam, read-out: CYP3A4 IC50 (μM) midazolam), at least 10 µM; in data set [5] (pooled human liver microsomes, substrate testosterone, read-out: CYP3A4 IC50 (μM) testosterone) it was at least 10 µM; in data set [7], below 90 nM. For the same compound, the “Kp (Brain:Plasma)” value in data set [6] (IV bolus followed by 2-hour iv infusion) was determined as 0.09. The Kpuu in data set [6] (calculated with fu,plasma and fu,brain) is 0.01.

With `CCn1cc(-c2cc3c(N4CCN(c5ncc([C@@](C)(N)c6ccc(F)cc6)cn5)CC4)ncnn3c2)cn1` [Compound 63, reference compound], the concentration at 24 h in data set [1] (setting [8]) was determined as 1920 ng/mL; in data set [1] (setting [9]), 1700 ng/mL; in data set [1] (setting [10]), 1.7 ng/mL; in data set [1] (setting [11]), 1140 ng/mL; in data set [1] (setting [12]) it was 1010 ng/mL; in data set [1] (setting [13]), 2.02 ng/mL. Also, the Kp uu at 24 h in data set [1] (Sprague-Dawley, rat, brain, 1 mg/kg/hr, rat, fu,brain from brain slices, read-out: Kp,uu, brain (brain slice method)) amounted to 0.044; in data set [1] (Sprague-Dawley, rat, brain, 1 mg/kg/hr, rat, unbound brain to plasma ratio, fu,brain from brain homogenate, read-out: Kpuu,brain), 0.84. Moreover, the Kp at 24 h in data set [1] (Sprague-Dawley, rat, brain, iv, 1 mg/kg/hr, mean of 3 rats, IV infusion 1 mg/kg/hr over 24 hours, at 24 hours, read-out: Kp, brain, Mean) came out at 1.8. Besides, in data set [1] (setting [14]), the “Brain Concentration” value was 1890 ng/mL and 1300 ng/mL. Also, in data set [1] (setting [14]), the “Kp, brain” value is 1.68 and 2.40 and 1.18. Besides, the “Plasma Concentration” value in data set [1] (setting [14]) was 789 ng/mL and 1100 ng/mL. Besides, the “Kp, brain, Mean” value in data set [1] (setting [15]) was 1.75. In addition, the “Kpuu,brain” value in data set [1] (setting [16]) worked out at 0.84. Moreover, in data set [2], the “Fraction bound (fb), rat plasma” value is 99.8%. In addition, the fraction unbound at 5 h, 10 μM in data set [2] amounted to 0.002. For the same compound, the fraction unbound at 5 h, 1 μM in data set [3] is 0.001. For the same compound, the fraction unbound in data set [4] is 0.00057. For the same compound, the Kp at 2 h in data set [6] (brain, IV bolus followed by 2-hour iv infusion) came out at 1.86. In addition, the Kp uu at 2 h in data set [6] (intravenous, calculated with fu,plasma and fu,brain) is 0.92. In data set [7], this compound registered a half-maximal inhibitory concentration (IC50) of 150 to 200 nM.
